Assay results taken from patent US11420969B2 (Exonate Limited, priority 2017, dated 2022).

Tests used:
[1] = biological target: T1, CYP2D6 (Homo sapiens, UniProt P10635); assay: biochemical; format: in vitro ADME
T1 construct: from tissue; host or cells: human liver microsomes
Outline: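 Human liver microsomes (0.253 mg/mL working stock) pre-incubated with compound and substrate pool at 37° C for 20 min. Reaction started with NADPH and run 10 min at 37° C, stopped with cold ACN. Metabolite analysed by LC-MS/MS; % inhibition and IC50 calculated versus inhibitor-free control.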

[2] = biological target: SRPK1 (Homo sapiens, UniProt Q96SB4); assay: In vitro SRPK1 assay (Kinase-Glo); format: biochemical
[3] = biological target: T2, CYP3A4 (Homo sapiens, UniProt P08684); assay: CYP inhibition assay, human liver microsomes, substrate midazolam; format: in vitro ADME; details: human liver microsomes, 10 min incubation, LC-MS/MS; read-out: CYP Inhibition Activity (IC50/nM) CYP3A4
T2 construct: from tissue; host or cells: human liver microsomes
Outline: (§1)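 Human liver microsomes with pooled substrates, test compound or positive inhibitor pre-incubated 20 min at 37° C, then NADPH-started reaction for 10 min at 37° C. Stopped with cold acetonitrile; metabolites quantified by LC-MS/MS, giving % inhibition and IC50.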

[4] = biological target: T3, CYP1A2 (Homo sapiens, UniProt P05177); assay: CYP inhibition assay, human liver microsomes, substrate tacrine; format: in vitro ADME; details: human liver microsomes, 10 min incubation, LC-MS/MS; read-out: CYP Inhibition Activity (IC50/nM) CYP1A2
T3 construct: from tissue; host or cells: human liver microsomes
T3 sequence (P05177 1-516): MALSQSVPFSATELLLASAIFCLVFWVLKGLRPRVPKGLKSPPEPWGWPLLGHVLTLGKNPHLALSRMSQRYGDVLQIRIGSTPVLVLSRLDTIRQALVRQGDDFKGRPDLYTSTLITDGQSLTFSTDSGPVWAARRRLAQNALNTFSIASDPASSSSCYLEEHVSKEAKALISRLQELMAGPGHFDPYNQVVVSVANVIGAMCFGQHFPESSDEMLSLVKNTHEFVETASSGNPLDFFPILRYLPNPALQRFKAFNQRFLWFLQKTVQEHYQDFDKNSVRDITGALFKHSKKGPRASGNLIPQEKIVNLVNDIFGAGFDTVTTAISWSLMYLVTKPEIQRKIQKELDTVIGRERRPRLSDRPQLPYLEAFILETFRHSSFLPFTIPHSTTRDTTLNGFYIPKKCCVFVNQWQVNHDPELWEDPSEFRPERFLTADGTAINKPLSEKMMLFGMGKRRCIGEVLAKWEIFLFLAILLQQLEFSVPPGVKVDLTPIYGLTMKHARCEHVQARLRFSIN
Outline: as §1

[5] = biological target: T4, CYP2C9 (Homo sapiens, UniProt P11712); assay: CYP inhibition assay, human liver microsomes, substrate diclofenac; format: in vitro ADME; details: human liver microsomes, 10 min incubation, LC-MS/MS; read-out: CYP Inhibition Activity (IC50/nM) CYP2C9
T4 construct: from tissue; host or cells: human liver microsomes
Outline: as §1

[6] = biological target: T5, CYP2C19 (Homo sapiens, UniProt P33261); assay: CYP inhibition assay, human liver microsomes, substrate S-mephenytoin; format: in vitro ADME; details: human liver microsomes, 10 min incubation, LC-MS/MS; read-out: CYP Inhibition Activity (IC50/nM) CYP2C19
T5 construct: from tissue; host or cells: human liver microsomes
Outline: as §1

T4 sequence (P11712 whole entry): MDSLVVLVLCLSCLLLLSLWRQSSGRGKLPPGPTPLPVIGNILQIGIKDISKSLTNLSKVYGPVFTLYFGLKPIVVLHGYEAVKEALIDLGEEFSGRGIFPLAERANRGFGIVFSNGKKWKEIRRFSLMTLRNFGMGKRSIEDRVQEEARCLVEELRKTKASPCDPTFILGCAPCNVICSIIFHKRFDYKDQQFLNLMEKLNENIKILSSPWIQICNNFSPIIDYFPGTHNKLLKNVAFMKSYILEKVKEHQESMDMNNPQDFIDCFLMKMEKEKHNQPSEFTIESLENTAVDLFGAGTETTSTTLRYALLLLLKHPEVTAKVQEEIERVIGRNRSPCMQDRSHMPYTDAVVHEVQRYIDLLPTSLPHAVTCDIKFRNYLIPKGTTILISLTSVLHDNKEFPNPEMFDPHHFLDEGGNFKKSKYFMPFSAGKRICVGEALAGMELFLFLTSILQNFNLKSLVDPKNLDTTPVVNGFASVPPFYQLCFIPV
T2 sequence (P08684 whole entry): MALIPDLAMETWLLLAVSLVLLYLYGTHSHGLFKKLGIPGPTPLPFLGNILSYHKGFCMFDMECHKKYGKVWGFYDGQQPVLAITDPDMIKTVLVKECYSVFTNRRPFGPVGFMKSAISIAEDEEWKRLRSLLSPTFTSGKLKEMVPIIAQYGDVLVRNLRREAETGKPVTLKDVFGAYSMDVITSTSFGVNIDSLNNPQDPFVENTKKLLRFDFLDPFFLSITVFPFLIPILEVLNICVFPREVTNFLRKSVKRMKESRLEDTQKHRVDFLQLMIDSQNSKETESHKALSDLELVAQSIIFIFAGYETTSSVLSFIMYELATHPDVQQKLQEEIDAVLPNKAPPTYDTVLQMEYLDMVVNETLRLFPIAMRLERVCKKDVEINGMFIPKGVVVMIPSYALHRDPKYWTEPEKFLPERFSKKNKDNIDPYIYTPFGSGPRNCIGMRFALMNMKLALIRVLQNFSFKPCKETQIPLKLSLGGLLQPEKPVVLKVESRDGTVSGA
Chain of SRPK1 (Q96SB4 whole entry, species assumed): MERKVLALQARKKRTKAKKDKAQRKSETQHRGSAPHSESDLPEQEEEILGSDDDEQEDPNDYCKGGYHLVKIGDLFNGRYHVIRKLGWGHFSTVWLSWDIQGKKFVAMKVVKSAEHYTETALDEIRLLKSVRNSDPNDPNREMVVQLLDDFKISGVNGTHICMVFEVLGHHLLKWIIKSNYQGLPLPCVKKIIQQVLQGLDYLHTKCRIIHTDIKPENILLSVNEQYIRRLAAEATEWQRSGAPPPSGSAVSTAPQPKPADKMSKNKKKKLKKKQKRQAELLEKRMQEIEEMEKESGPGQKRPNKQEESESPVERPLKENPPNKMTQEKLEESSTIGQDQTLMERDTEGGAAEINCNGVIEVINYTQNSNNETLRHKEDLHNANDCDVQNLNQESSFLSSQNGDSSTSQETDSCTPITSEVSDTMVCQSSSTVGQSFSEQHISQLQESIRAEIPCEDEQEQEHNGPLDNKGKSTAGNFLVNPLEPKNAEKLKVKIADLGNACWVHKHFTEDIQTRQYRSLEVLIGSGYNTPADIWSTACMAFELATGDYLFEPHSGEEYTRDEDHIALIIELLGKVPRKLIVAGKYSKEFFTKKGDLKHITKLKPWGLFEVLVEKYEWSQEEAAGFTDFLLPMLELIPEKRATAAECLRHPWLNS
T1 sequence (P10635 whole entry): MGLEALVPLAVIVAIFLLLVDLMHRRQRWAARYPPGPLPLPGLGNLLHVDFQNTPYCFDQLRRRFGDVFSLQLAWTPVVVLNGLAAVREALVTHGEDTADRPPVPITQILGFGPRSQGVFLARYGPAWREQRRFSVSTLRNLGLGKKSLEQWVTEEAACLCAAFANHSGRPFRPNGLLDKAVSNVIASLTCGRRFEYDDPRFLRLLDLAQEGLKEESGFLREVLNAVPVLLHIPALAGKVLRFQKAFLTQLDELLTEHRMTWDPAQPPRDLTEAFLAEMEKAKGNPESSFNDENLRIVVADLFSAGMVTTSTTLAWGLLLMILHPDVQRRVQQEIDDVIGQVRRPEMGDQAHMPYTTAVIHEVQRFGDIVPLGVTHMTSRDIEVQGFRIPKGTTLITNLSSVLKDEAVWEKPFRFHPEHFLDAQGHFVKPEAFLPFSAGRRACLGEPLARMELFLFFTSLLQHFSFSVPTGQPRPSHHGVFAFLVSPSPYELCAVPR
T5 sequence (P33261 whole entry): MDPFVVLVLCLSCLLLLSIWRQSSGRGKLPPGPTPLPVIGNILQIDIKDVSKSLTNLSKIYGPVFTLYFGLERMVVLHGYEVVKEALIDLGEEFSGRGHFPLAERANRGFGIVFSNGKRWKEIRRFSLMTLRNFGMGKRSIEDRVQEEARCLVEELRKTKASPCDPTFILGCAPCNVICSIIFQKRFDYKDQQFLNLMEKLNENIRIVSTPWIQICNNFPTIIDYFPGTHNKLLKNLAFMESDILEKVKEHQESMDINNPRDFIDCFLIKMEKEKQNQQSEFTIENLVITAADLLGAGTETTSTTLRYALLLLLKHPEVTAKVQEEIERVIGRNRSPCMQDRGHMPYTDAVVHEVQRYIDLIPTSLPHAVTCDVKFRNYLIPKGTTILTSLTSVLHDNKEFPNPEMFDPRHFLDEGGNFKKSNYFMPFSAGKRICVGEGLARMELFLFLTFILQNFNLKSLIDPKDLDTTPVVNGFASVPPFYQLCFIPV

Row | Structure (SMILES) | IC50 [1] [µM] | IC50 [2] [nM] | IC50 [3] [nM] | IC50 [4] [nM] | IC50 [5] [nM] | IC50 [6] [nM]
1 | CN(C)C(=O)C1(C)CCN(c2ccc(C(F)(F)F)cc2NC(=O)c2ccc(C3CCOCC3)o2)CC1 [Example 77, N,N,4-trimethyl-1-(2-(5-(tetrahydro-2H-pyran-4-yl)furan-2-carboxamido)-4-(trifluoromethyl)-phenyl)piperidine-4-carboxamide] | 9.54 | 1.6 | 970 | > 30000 | 1440 | 4780
2 | CN(C)C(=O)C1(C)CCN(c2ccc(Cl)cc2NC(=O)c2ccc(C3CCOCC3)o2)CC1 [Example 84, 1-(4-chloro-2-(5-(tetrahydro-2H-pyran-4-yl)furan-2-carboxamido)phenyl)-N,N,4-trimethyl-piperidine-4-carboxamide] | 12.4 | 23 | 2200 | > 30000 | 600 | 8000
3 | COc1ccc(N2CCC(C)(C(=O)N(C)C)CC2)c(NC(=O)c2ccc(C3CCOCC3)o2)c1 [Example 85, 1-(4-methoxy-2-(5-(tetrahydro-2H-pyran-4-yl)furan-2-carboxamido)phenyl)-N,N,4-trimethyl-piperidine-4-carboxamide] | > 30 | 43 | 20700 | > 30000 | 800 | 21700
4 | CN(C)C(=O)C1(C)CCN(c2ccc(C3CC3)cc2NC(=O)c2ccc(C3CCOCC3)o2)CC1 [Example 86, 1-(4-cyclopropyl-2-(5-(tetrahydro-2H-pyran-4-yl)furan-2-carboxamido)phenyl)-N,N,4-trimethyl-piperidine-4-carboxamide] | 19.2 | 9 | 1100 | > 30000 | 200 | 4100
5 | Cc1ccc(N2CCC(C)(C(=O)N(C)C)CC2)c(NC(=O)c2ccc(C3CCOCC3)o2)c1 [Example 87, N,N,4-trimethyl-1-(4-methyl-2-(5-(tetrahydro-2H-pyran-4-yl)furan-2-carboxamido)phenyl)piperidine-4-carboxamide] | > 30 | 27 | 5900 | > 30000 | 800 | 14300
6 | CC1(C(=O)N2CCCC2)CCN(c2ccc(C(F)(F)F)cc2NC(=O)c2ccc(C3CCOCC3)o2)CC1 [Example 88, N-(2-(4-methyl-4-(pyrrolidine-1-carbonyl)-piperidin-1-yl)-5-(trifluoromethyl)-phenyl)-5-(tetrahydro-2H-pyran-4-yl)furan-2-carboxamide] | 10.3 | 11 | 1000 | > 30000 | 300 | 4600
7 | CC1(C(=O)N2CCCCC2)CCN(c2ccc(C(F)(F)F)cc2NC(=O)c2ccc(C3CCOCC3)o2)CC1 [Example 89, N-(2-(4-methyl-4-(piperidine-1-carbonyl)-piperidin-1-yl)-5-(trifluoromethyl)phenyl)-5-(tetrahydro-2H-pyran-4-yl)furan-2-carboxamide] | 18.9 | 14 | 2800 | > 30000 | 2500 | 14100
8 | CC1(C(=O)N2CCOCC2)CCN(c2ccc(C(F)(F)F)cc2NC(=O)c2ccc(C3CCOCC3)o2)CC1 [Example 90, N-(2-(4-methyl-4-(morpholine-4-carbonyl)-piperidin-1-yl)-5-(trifluoromethyl)phenyl)-5-(tetrahydro-2H-pyran-4-yl)furan-2-carboxamide] | 11.6 | 5.5 | 2800 | > 30000 | 1000 | 10300
9 | CN(C)CC1(C)CCN(c2ccc(C3CC3)cc2NC(=O)c2ccc(C3CCOCC3)o2)CC1 [Example 93, N-(5-cyclopropyl-2-(4-((dimethylamino)methyl)-4-methylpiperidin-1-yl)phenyl)-5-(tetrahydro-2H-pyran-4-yl)furan-2-carboxamide] | 24.3 | 28 | 29500 | > 30000 | 13700 | 25700

Stronger by IC50 [1], values ahead:

Row | IC50 [1] [µM] | IC50 [2] [nM] | IC50 [3] [nM] | IC50 [4] [nM] | IC50 [5] [nM] | IC50 [6] [nM] | Structure (SMILES)
10 | 8.68 | 3.2 | 750 | > 30000 | 1700 | 4250 | CNC(=O)C1(C)CCN(c2ccc(C(F)(F)F)cc2NC(=O)c2ccc(C3CCOCC3)o2)CC1 [Example 76, N,4-dimethyl-1-(2-(5-(tetrahydro-2H-pyran-4-yl)furan-2-carboxamido)-4-(trifluoromethyl)-phenyl)piperidine-4-carboxamide]
11 | 1.29 | 9.1 | 8320 | > 30000 | 9130 | 20000 | CC1(CN)CCN(c2ccc(C(F)(F)F)cc2NC(=O)c2ccc(-c3ccncc3)o2)CC1 [Example 78, N-(2-(4-(aminomethyl)-4-methylpiperidin-1-yl)-5-(trifluoromethyl)phenyl)-5-(pyridin-4-yl)furan-2-carboxamide]
12 | 0.4 | 263 | 4500 | > 30000 | > 30000 | 17800 | CNCC1(C)CCN(c2ccc(C(F)(F)F)cc2NC(=O)c2ccc(-c3ccncc3)o2)CC1 [Example 79, N-(2-(4-methyl-4-((methylamino)-methyl)piperidin-1-yl)-5-(trifluoromethyl)phenyl)-5-(pyridin-4-yl)furan-2-carboxamide]
13 | 1.04 | 42 | 3540 | > 30000 | 7640 | 7340 | CN(C)CC1(C)CCN(c2ccc(C(F)(F)F)cc2NC(=O)c2ccc(-c3ccncc3)o2)CC1 [Example 80, N-(2-(4-((dimethylamino)methyl)-4-methyl-piperidin-1-yl)-5-(trifluoromethyl)phenyl)-5-(pyridin-4-yl)furan-2-carboxamide]
14 | 2.8 | 35 | 6200 | > 30000 | > 30000 | 29200 | CNCC1(C)CCN(c2ccc(C(F)(F)F)cc2NC(=O)c2ccc(C3CCOCC3)o2)CC1 [Example 82, N-(2-(4-methyl-4-((methylamino)methyl)-piperidin-1-yl)-5-(trifluoromethyl)phenyl)-5-(tetrahydro-2H-pyran-4-yl)furan-2-carboxamide]
15 | 3.2 | 3.2 | 21000 | > 30000 | 24300 | > 30000 | CN(C)CC1(C)CCN(c2ccc(C(F)(F)F)cc2NC(=O)c2ccc(C3CCOCC3)o2)CC1 [Example 83, N-(2-(4-((dimethylamino)methyl)-4-methyl-piperidin-1-yl)-5-(trifluoromethyl)phenyl)-5-(tetrahydro-2H-pyran-4-yl)furan-2-carboxamide]
16 | 0.2 | 41 | 19000 | > 30000 | 14900 | 20800 | CN(C)CC1(C)CCN(c2ccc(Cl)cc2NC(=O)c2ccc(C3CCOCC3)o2)CC1 [Example 91, N-(5-chloro-2-(4-((dimethylamino)methyl)-4-methylpiperidin-1-yl)phenyl)-5-(tetrahydro-2H-pyran-4-yl)furan-2-carboxamide]
17 | 1.5 | 150 | > 30000 | > 30000 | 10400 | > 30000 | COc1ccc(N2CCC(C)(CN(C)C)CC2)c(NC(=O)c2ccc(C3CCOCC3)o2)c1 [Example 92, N-(2-(4-((dimethylamino)methyl)-4-methyl-piperidin-1-yl)-5-methoxyphenyl)-5-(tetrahydro-2H-pyran-4-yl)furan-2-carboxamide]
18 | 0.3 | 167 | 23100 | > 30000 | 17200 | 25100 | Cc1ccc(N2CCC(C)(CN(C)C)CC2)c(NC(=O)c2ccc(C3CCOCC3)o2)c1 [Example 94, N-(2-(4-((dimethylamino)methyl)-4-methyl-piperidin-1-yl)-5-methylphenyl)-5-(tetrahydro-2H-pyran-4-yl)furan-2-carboxamide]
